Test results: patent US20250144031A1, “COMPOSITION FOR TREATING SPINAL MUSCULAR ATROPHY” (Hoffmann-La Roche Inc., priority 2023, published 2025)

Assays:
[1] = Risdiplam solubility in tartaric acid solution with sodium croscarmellose or crospovidone (UPLC); format: physicochemical; conditions: 0.6 mg/ml tartaric acid in tap water, pH 4.1, stirred 30 minutes, room temperature
Method: 60 mg of Tartaric Acid were dissolved in 100 ml tap water (0.6 mg/ml) at room temperature and protected from light. A representative amount of Sodium Croscarmellose or Crospovidone was added and dispersed. After that, 100 mg of risdiplam were added, the suspension stirred for 30 minutes und the concentration analyzed by UPLC (see Table 11).

[2] = air of a workplace; classified by regulatory authorities at EU and national levels; cited from earlier work
[3] = Impact of sucralose on risdiplam stability; format: physicochemical; conditions: 25 mg risdiplam and 475 mg Sucralose, 15 days at 70° C./75% Relative Humidity
Method: FIG. 3: Discoloration and decomposition of risdiplam in the presence of Sucralose, a) Risdiplam+Sucralose at time 0, b) risdiplam+Sucralose (70° C./75% Relative Humidity) after 15 days, c) sucralose without Risdiplam (70° C./75% Relative Humidity) after 15 days.
The impact of Sucralose on Risdiplam stability was evaluated. Vial (a) contained […] and is shown at time 0; vial (b) is 25 mg risdiplam and 475 mg Sucralose after 15 days at 70° C./75% Relative Humidity; and vial (c) is Sucralose without Risdiplam after 15 days at 70° C./75% Relative Humidity.

- Concentration (Nominal 1 mg/ml) ([1]; with Crospovidone (75 mg)): 970 µg/mL
- Concentration (Nominal 1 mg/ml) ([1]; with Sodium Croscarmellose (75 mg)): 280 µg/mL
Compound: Cc1cn2nc(-c3cc(=O)n4cc(N5CCNC6(CC6)C5)ccc4n3)cc(C)c2n1 [Risdiplam, 7-(4,7-diazaspiro[2.5]octan-7-yl)-2-(2,8-dimethylimidazo[1,2-b]pyridazin-6-yl)pyrido[1,2-a]pyrimidin-4-one]
- IOEL (occupational exposure limit) [2]: 1.0-10 microgram/m3
- Stability of risdiplam in presence of Sucralose [3]: cause discoloration and promote the decomposition of risdiplam
